Laboratory results: patent publication US4769377A, “Adenosine receptor antagonists” (priority 1986, dated 1988)
pIC50, pKi: −log10 of the molar value. In brackets after ≈: the same amount, converted by molar mass. Entries after “also recorded” stand apart in the source; their conditions may differ. Read-outs that look alike come from different tables or passages of the source. Blank lines part the entries; values can stand above or below the compound they belong to.

Assays:
[1] = Solubility of 8-phenylxanthines; type: physicochemical
adenosine A1 receptors [2] = target: T1, adenosine A1 receptors (Bos taurus, UniProt P28190); assay: biochemical;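 further: Filter-bound radioactivity read by liquid scintillation counting, with dose-inhibition curves built from 4–8 test concentrations, each run in triplicate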
T1 sequence (P28190 1-326): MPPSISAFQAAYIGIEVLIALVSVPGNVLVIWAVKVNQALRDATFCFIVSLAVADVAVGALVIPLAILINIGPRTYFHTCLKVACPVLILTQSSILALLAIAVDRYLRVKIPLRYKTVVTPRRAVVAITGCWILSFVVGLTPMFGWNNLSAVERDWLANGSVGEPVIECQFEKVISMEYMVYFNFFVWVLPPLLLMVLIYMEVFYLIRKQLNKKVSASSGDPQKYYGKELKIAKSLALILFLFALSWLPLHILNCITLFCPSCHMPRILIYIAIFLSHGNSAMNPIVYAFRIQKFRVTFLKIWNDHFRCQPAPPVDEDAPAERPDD
Experimental: (§1) Incubation was terminated and samples were collected on GF/B filters under vacuum, washed three times, and counted in a liquid scintillation counter. Dose-inhibition curves were generated with four to eight concentrations of the test compound in triplicate incubations.

adenosine A1 receptors [3] = target: T1, adenosine A1 receptors; assay: inhibition of [^3 H]CHA binding to A1 adenosine receptors in bovine brain membranes;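 further: Filter-bound radioactivity read by liquid scintillation counting, with dose-inhibition curves built from 4–8 test concentrations, each run in triplicate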
Experimental: as §1

A1 receptor in rat brain = target: T2, A1 receptor in rat brain (Rattus norvegicus, UniProt P25099); assay: A1 receptor affinity in rat brain; type: binding
T2 construct: from tissue; host or cells: rat brain
T2 sequence (P25099 1-326): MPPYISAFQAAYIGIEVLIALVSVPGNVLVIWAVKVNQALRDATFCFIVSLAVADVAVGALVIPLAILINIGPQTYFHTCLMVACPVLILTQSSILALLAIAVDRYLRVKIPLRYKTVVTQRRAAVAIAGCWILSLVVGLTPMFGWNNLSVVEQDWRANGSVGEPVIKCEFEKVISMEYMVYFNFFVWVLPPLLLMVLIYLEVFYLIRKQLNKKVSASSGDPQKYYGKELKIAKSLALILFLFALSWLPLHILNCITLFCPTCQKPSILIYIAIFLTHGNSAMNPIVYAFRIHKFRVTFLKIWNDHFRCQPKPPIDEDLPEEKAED

hydrophobicity = type: physicochemical
adenosine A1 receptors [4] = target: T1, adenosine A1 receptors
Experimental: as §1

[5] = Table I, vs [^3 H]-cyclohexyladenosine, bovine brain
[6] = Table II, vs [^3 H-CHA] in bovine brain

- water solubility (in words) ([1]; water): much greater water solubility
- pKi (adenosine A1 receptors [2]): 9.85
- pIC50 (adenosine A1 receptors [3]): 9.70
- activity relative to most active prior art compound (B70) (adenosine A1 receptors [3]; bovine brain): four-fold greater
- adenosine receptor blocking activity (in words) (adenosine A1 receptors [3]; bovine brain, listed as 262): significantly lower
Structure (SMILES): CCCn1c(=O)c2nc(-c3ccc(N)cc3N)[nH]c2n(CCC)c1=O [B262, 1,3-Dipropyl-8-(2,4-Diaminophenyl) Xanthine]
- adenosine receptor blocking activity (in words) (adenosine A1 receptors [3]; bovine brain): substantially less active than B256; also recorded: particularly outstanding activity

- solubility ([1]; dmf, organic solvent or mixture, read-out: soluble in DMF at): 30000 µM (≈ 10900 µg/mL)
- solubility ([1]; ethanol, organic solvent or mixture, read-out: soluble in ethanol at): 1000 µM (≈ 362 µg/mL)
- solubility ([1]; hot 0.1n koh, read-out: soluble in hot 0.1N KOH at): 1000 µM (≈ 362 µg/mL)
- water solubility (in words) ([1]; water): very water-insoluble
- pKi (A1 receptor in rat brain): 8.30
- more potent than 8-phenyltheophylline using rat brain (A1 receptor in rat brain): about 30 fold
- more potent than theophylline using rat brain (A1 receptor in rat brain): ~2000 fold
- hydrophobicity (in words) (hydrophobicity): hydrophobic
- pKi (adenosine A1 receptors [4]): 10.66
- pIC50 (adenosine A1 receptors [3]; [5]): 10.30
- activity relative to most active prior art compound (B70) (adenosine A1 receptors [3]; bovine brain): ~16 times
- times more potent than xanthine (adenosine A1 receptors [3]; bovine brain): approximately 4,000,000 times
- pKi (adenosine A1 receptors [3]; read-out: Ki for adenosine A1 receptors, bovine brain): 10.66
Structure (SMILES): CCCn1c(=O)c2[nH]c(-c3ccc(Cl)cc3N)nc2n(CCC)c1=O [B256, 1,3-dipropyl-8-(2-amino-4-chlorophenyl)xanthine]
- adenosine receptor blocking activity (in words) (adenosine A1 receptors [3]; bovine brain): significantly lower; also recorded: extremely potent; also recorded: particularly outstanding activity

- solubility ([1]; water, read-out: soluble in water at): 3 µM (≈ 0.853 µg/mL)
Structure (SMILES): CCn1c(=O)c2[nH]c(-c3ccccc3)nc2n(CC)c1=O [1,3-diethyl-8-phenylX, 1,3-diethyl-8-phenylxanthine]

- pKi (adenosine A1 receptors [2]): 8.23
- pIC50 (adenosine A1 receptors [3]; [5]): 8.10
Structure (SMILES): Cn1c(=O)c2[nH]c(-c3ccc(N)cc3N)nc2n(C)c1=O [B232, 8-(2,4-diaminophenyl)theophylline]

- pKi (adenosine A1 receptors [2]): 9.49
- pIC50 (adenosine A1 receptors [3]; [6]): 9.10
Structure (SMILES): CCn1c(=O)c2[nH]c(-c3ccc(Cl)cc3N)nc2n(CC)c1=O [1,3-diethyl-8-(2-amino-4-chlorophenyl)X, 1,3-diethyl-8-(2-amino-4-chlorophenyl)xanthine]

- pKi (adenosine A1 receptors [2]): 8.92
- pIC50 (adenosine A1 receptors [3]; [6]): 8.60
Structure (SMILES): Cn1c(=O)c2[nH]c(-c3ccc([N+](=O)[O-])cc3N)nc2n(C)c1=O [8-(2-amino-4-nitrophenyl)T]

- pIC50 (adenosine A1 receptors [3]): 7.00
Structure (SMILES): Cn1c(=O)c2[nH]c(-c3ccccn3)nc2n(C)c1=O [8-(2-pyridyl)T]

- pKi (adenosine A1 receptors [2]): 9.70
- pIC50 (adenosine A1 receptors [3]): 9.82
- adenosine receptor blocking activity (in words) (adenosine A1 receptors [3]; bovine brain): significantly lower
Structure (SMILES): Cn1c(=O)c2[nH]c(-c3ccc(Cl)cc3N)nc2n(C)c1=O [B246, 8-(2-Amino-4-Chlorophenyl) Theophylline]

- pIC50 (adenosine A1 receptors [3]): 6.70
- pKi (adenosine A1 receptors [3]): 7.00
Structure (SMILES): CCCn1c(=O)c2nc[nH]c2n(CCC)c1=O [B80, 1,3-dipropylxanthine]

- pIC50 (adenosine A1 receptors [3]; [6]): 8.00
Structure (SMILES): Cc1ccc(-c2nc3c([nH]2)c(=O)n(C)c(=O)n3C)c(N)c1 [8-(2-amino-4-methylphenyl)T]

- pIC50 (adenosine A1 receptors [3]): 3.82
Structure (SMILES): Cn1c(=O)[nH]c(=O)c2[nH]cnc21 [3-methylX]

- pIC50 (adenosine A1 receptors [3]): 7.70
Structure (SMILES): Cn1cccc1-c1nc2c([nH]1)c(=O)n(C)c(=O)n2C [8-(N--methyl-2-pyrrolyl)T]

- pIC50 (adenosine A1 receptors [3]): 5.82
Structure (SMILES): Cn1c(=O)c2[nH]c(Cc3ccccc3)nc2n(C)c1=O [8-benzylT]

- pIC50 (adenosine A1 receptors [3]; [6]): 8.70
Structure (SMILES): C=CCn1c(=O)c2[nH]c(-c3ccc(Cl)cc3N)nc2n(C)c1=O [1-allyl-3-methyl-8-(2-amino-4-chlorophenyl)X]

- pIC50 (adenosine A1 receptors [3]; [6]): 6.46
Structure (SMILES): COc1ccccc1-c1nc2c([nH]1)c(=O)n(C)c(=O)n2C [8-(o-methoxyphenyl)T]
